≈ marks a conversion by molar mass, not a printed value. Where two headings read alike, the source gives them in different places.
Assays:
[1] = Kinetic solubility in phosphate-buffered saline, pH 7.4; type: physicochemical; details: 25 °C, kinetic from dmso stock, phosphate-buffered saline; for solubility at 2 h: pH 7.4, aqueous buffer, Table S2, 2st batch
Experimental: Analysis of Aqueous Solubility […]
compound (Ondansetron) were assessed for kinetic solubility in phosphate -buffered saline, pH 7.4.
Phosphate buffered saline, pH 7.4 (Sigma -Aldrich, USA; Cat #P3813) […]
MultiScreen HTS 96 Well Filter Plates (Millipore, Ireland; Cat # MSSLBPC10) […]
Matrix Multichannel Electronic Pipette 2-125 μL, 5-250 μL, 15-1250 μL (Thermo Scientific, USA; […]
Vacuum pump (Millipore, USA; Model # XX5500000)
The measurements were performed using SpectraMax Plus reader in UV -Vis mode. Acquisition and […]
The measurements were performed using SpectraMax Paradigm reader in UV-Vis mode.
Acquisition and analysis of the data were performed using SoftMax Pro v.5.4 (Molecular Devices) […]
Kinetic solubility assay was performed according to the Enamine’s aqueous solubility SOP. Briefly, using a 20 mM stock solution of the compound in 100% DMSO dilutions were prepared to a theoretical concentration of 400 μM in duplicates in phosphate-buffered saline pH 7.4 […]
compound dilutions in PBS were further allowed to equilibrate at 25 °C on a thermostatic shaker for two hours and then filtered through HTS filter plates using a vacuum manifold. The filtrates of test compounds were diluted 2-fold with acetonitrile with 2% DMSO before measuring.
In parallel, compound dilutions in 50% acetonitrile/PBS were prepared to theoretical concentrations […]
calibration curves. Ondansetron was used as reference compound to control proper assay performance. 200 μl of each sample was transferred to 96-well plate and measured in 230-550 nm range with 5 nm step. The effective range of this assay is approximately 2-400 μM and the […]
The concentrations of compounds in PBS filtrate are calculated using a dedicated Microsoft Excel calculation script. Proper absorbance wavelengths for calculations are selected for each compound manually based on absorbance maximums (absolute absorbance unit values for the minimum and maximum concentration points within the 0 – 3 OD range). Each final dataset is visually evaluated by the operator, and goodness of fit (R2) is calculated for each calibration curve. […]
samples were diluted 2-fold with acetonitrile containing internal standard and were analyzed using the HPLC system coupled with a tandem mass spectrometer. The effective range of this assay is […]

[2] = Metabolic stability in human liver microsomes; details: both, liver microsomes (pooled); for remaining at 40 min, 2 µM: Mean of 2, 40 min
[3] = system: Aspergillus niger (strain VURV-F 822); assay: Antifungal disk diffusion method; type: cell-based; details: read-out: Diameter of inhibition zone
Experimental: Antifungal activity of the synthetic compounds using disk diffusion methods The compounds were tested for plant pathogens Aspergillus niger (strain VURV-F 822), which was received from Culture collection of microorganisms of Crop Research Institute (Prague, Czech […]
The synthetic compounds' antifungal activity was evaluated using a disk diffusion assay for testing filamentous fungi (CLSI M51-A) and broth microdilution antifungal susceptibility testing (EUCAST E.DEF 7.3.1; CLSI M38-A2)
[CLSI M51-A. Method for Antifungal Disk Diffusion Susceptibility Testing of Nondermatophyte Filamentous Fungi; Approved Guideline.CLSI document M51-A. Wayne, PA:
Clinical and Laboratory Standards Institute; 2010. This method is standardized for Altenaria, Aspergillus, Bipolaris, Fusarium, order Mucorales, etc.]
[CLSI M38-A2. 2008. Reference method for broth dilution antifungal susceptibility testing of filamentous fungi, 2nd ed Approved standard M38 -A2 Clinical and Laboratory Standards Institute, […]
Antifungal disk diffusion method
The solutions of fungicides and their analogues were diluted in dimethyl sulfoxide (DMSO) to […]
mg/mL for each test component. Sterile paper disks (ASPECT, Ukraine) were soaked with 10 μl of a solution of the appropriate fungicide from the highest concentration to the lowest.
The fungal strains were cultured on Petri dishes with Saburo dextrose agar (Condalab, Spain) and incubated at 25 °C for 5 days. Sterile Dulbecco's phosphate -buffered saline (DPBS) with 0,1 % Tween 20 was used to cover colonies of fungus for obtained conidia l suspension. Suspension of conidia was adjusted to inoculums 2×10^5 conidia/mL by sterile DPBS.
For antifungal disk diffusion test we used square Petri dishes (FALCON A Corning Brand, USA). The conidial suspension (0.5 mL) was added to Petri dishes with Saburo dextrose agar. The suspension was evenly distributed over the surface of the nutrient medium with a glass spatula.
After the surface of the inoculated medium was dry, the disks with different concentrations of testing compounds were added to the Petri dishes. Each compound was tested in triplicate at different concentrations. Growth control was a disk with 10 μl of DMSO, which was used for test […]
Petri dishes incubated at 25 °C for 72 h. The test compounds at known concentrati on into contact with an inoculated medium then exert a growth-inhibiting effect then a clear zone (the zone of […]
inhibition) appears around the test product. The diameter of a clear zone around the well is […]
If the fungal strain is susceptible to the antifungal agent, then a zone of inhibition appears on the agar plate. If it is resistant to the test compound, then no zone is evident. The size of the zone of inhibition is usually related to the level of antifungal activity present in the compound – a larger […]
The growth rate of all strains for each concentration of test compounds was determined visually and compared with the growth of control.
Broth microdilution antifungal susceptibility testing
A 96-well CELLSTAR plate (sterile, flat-bottomed, polystyrene, transparent) was used to determine MIC by broth microdilution method. Also, dabble straight RPMI-1640 medium with 2% glucose (2x RPMI 2%G) was used for this method. Spore suspension for plate inoculation was prepared according to the method described above for the disc diffusion method.
The each well in the plate contained 49 μl of medium (2x RPMI 2%G), 50 μl of inoculum (prepared in DPBS) and 1 μl of the stock solution of the test substance. Positive control wells contained 50 μl medium and 50 μl inoculum, and sterile control wells contained 50 μl medium and […]
To determine the MIC by the microdilution method, a series of stock solutions of fungicides and their analogues in DMSO with the following concentrations were prepared: 3.2 mg/mL, 1.6 mg/mL, […]
1 μl of the stock solutions of the test substances were added to each well to obtain the following […]
Immediately after adding all the components to the plates, the optical density was measured at […]

solubility kinetic at 2 h ([1]; aqueous buffer, pH 7.4, read-out: Sol.: experimental kinetic solubility): 27 µM (≈ 10.4 µg/mL)
solubility at 2 h ([1]; read-out: PBS solubility, pH 7.4, Incubation 1): 25 µM (≈ 9.63 µg/mL)
solubility at 2 h ([1]; read-out: PBS solubility, pH 7.4, Incubation 2): 28 µM (≈ 10.8 µg/mL)
solubility at 2 h ([1]; read-out: PBS solubility, pH 7.4, Mean): 27 µM (≈ 10.4 µg/mL)
D (Table S5, injection 1, octanol/PBS pH 7.4): 4.08E+03
D (Table S5, injection 2, octanol/PBS pH 7.4): 4.11E+03
D (Table S5, injection 3, octanol/PBS pH 7.4): 4.44E+03
microsomal CLint at 2 µM ([2]; pH 7.4): 61 µL/min/mg
remaining at 40 min, 2 µM ([2]; pH 7.4, % Remaining without cofactor, no NADPH cofactor, Table S6, 1st batch): 109%
remaining at […], 2 µM ([2]; pH 7.4, % Remaining, Mean of 2, 7 min, Table S6, 1st batch): 70%
remaining at […], 2 µM ([2]; pH 7.4, % Remaining, Mean of 2, 15 min, Table S6, 1st batch): 53%
remaining at 25 min, 2 µM ([2]; pH 7.4, % Remaining, Mean of 2, 25 min, Table S6, 1st batch): 43%
remaining at 40 min, 2 µM ([2]; pH 7.4, % Remaining, Table S6, 1st batch): 35%
k el at 2 µM ([2]; pH 7.4, kel, Table S6, 1st batch): 0.000417 s⁻¹
half-life at 2 µM ([2]; pH 7.4, t1/2, Table S6, 1st batch): 27.3 min
SMILES: Cn1cc(C(=O)NC2CC3CC2(c2cc(F)c(F)c(F)c2)C3)c(C(F)F)n1 (stereo not shown) [Compound 30]
zone of inhibition at 4 µg/mL ([3]; Concentration 0.004 mg/mL, 0 = absence of antifungal activity, Boscalid, Fluxapyroxad, Bixafen marked st): 0 mm
zone of inhibition at 8 µg/mL ([3]; Concentration 0.008 mg/mL, 0 = absence of antifungal activity): 0 mm
zone of inhibition at 16 µg/mL ([3]; Concentration 0.016 mg/mL, 0 = absence of antifungal activity): 0 mm
zone of inhibition at 30 µg/mL ([3]; Concentration 0.03 mg/mL, 0 = absence of antifungal activity, (±)-29 marked st): 0 mm
zone of inhibition at 60 µg/mL ([3]; Concentration 0.06 mg/mL, 0 = absence of antifungal activity, Fluxapyroxad, Bixafen, (±)-29 marked st): 0 mm
zone of inhibition at 120 µg/mL ([3]; Concentration 0.12 mg/mL, (±)-28 marked st (static growth)): 10 ± 0.5 mm
zone of inhibition at 250 µg/mL ([3]; Concentration 0.25 mg/mL, (±)-28 marked st (static growth, secondary growth of mycelium)): 8.5 ± 1 mm
zone of inhibition at 500 µg/mL ([3]; Concentration 0.5 mg/mL, 10 μl per disk): 13.8 ± 0.75 mm
zone of inhibition at 1000 µg/mL ([3]; Concentration 1 mg/mL, 10 μl per disk): 20.5 ± 1 mm
zone of inhibition at 2000 µg/mL ([3]; Concentration 2 mg/mL, 10 μl per disk): 24.2 ± 0.75 mm

Source: article PMC10718076, “1,2-Disubstituted bicyclo[2.1.1]hexanes as saturated bioisosteres of ortho-substituted benzene” (Chemical Science, 2023)
